Experimental data from patent US10421973B2, “Chemically inducible cucumber mosaic virus protein expression system” (THE REGENTS OF THE UNIVERSITY OF CALIFORNIA, priority 2006, dated 2019).
“Also recorded” adds a separate entry of the source. Like-named read-outs stand apart in the source and are kept apart here. Where a SMILES comes first, the peptide text is derived from it. Bridges are numbered along the chain shown (N, C = ends). [ ]: non-standard residue; d: D form. The star is where a group is joined. Ileψ(thiazoline)Cys = CC[C@H](C)[C@H](N)C1=N[C@H](C(=O)*)CS1; dOrn = NCCC[C@@H](N)C(=O)O

How the values were obtained:
[1] = tested on: proteases in the cell cultured medium; assay: Effect of protease inhibitors and additives on human AAT degradation in cell-free CMViva conditioned medium; type: biochemical, Nicotiana benthamiana; details: for effect of protease inhibitor on human AAT degradation: 10 mM in 7 day old cell-free CMViva conditioned medium
Experimental: For the investigation of human AAT stability in plant cell cultures, human AAT was added to the cell-free conditioned medium to a final concentration of 2 mg/L and distributed into 6-well-plates. The cell-free conditioned medium was prepared by centrifuging and filtering (through a 0.22 μm filter) the plant cells from 7 day old CMViva cell cultures (pH 5.1). Various protease inhibitors including 2-mercaptoethylamine-HCl (aminopeptidase inhibitor), AEBSF (serine and cysteine proteases inhibitor), benzamidine-HCl (serine protease inhibitor), and EDTA (a metal ion chelator and metalloproteinase inhibitor) were added to the conditioned medium to a final concentration of 10 mM to assess their ability to retard the degradation of human AAT. In another treatment, the conditioned medium was also heated (in boiling water for 30 minutes) or the medium pH was adjusted (from original pH 5.1 to 6.4˜6.6) prior to the addition of human AAT to investigate the human AAT stability. The 6-well-plates containing human AAT in various conditioned medium (4 mL/well) were incubated on an orbital shaker at 140 rpm and 25[…] under ambient light. Samples were taken daily and stored at −80° for further ELISA, western blotting and band shift analysis.

[2] = tested on: transgenic plant cell cultures; assay: Effect of stabilizing agents and protease inhibitors on rAAT production in transgenic plant cell cultures; type: cell-based, Nicotiana benthamiana
Experimental: The effect of stabilizing agents (bacitracin, PVP, BSA, Pluronic F-68, and mannitol) and protease inhibitors (2-mercaptoethylamine-HCl, AEBSF, benzamidine-HCl and EDTA) on the rAAT production in transgenic plant cell cultures was also evaluated.

[3] = transgenic plant cell cultures, data not shown

Row | Compound | effect of protease inhibitor on human AAT degradation [1] | effect on total and functional rAAT production [2, 3] | effect on total and functional rAAT production [2] | effect of medium additive on stabilizing functional human AAT ([1]; cell-free conditioned medium, data not shown)
1 | Cl.NCCS [2-mercaptoethylamine-HCl] | slightly inhibit human AAT degradation | no significant improvement |  | 
2 | NCCc1ccc(S(=O)(=O)F)cc1 [AEBSF] | highest ability to stabilize functional human AAT levels; also recorded: slightly inhibit human AAT degradation | no significant improvement |  | 
3 | O=C(O)CN(CCN(CC(=O)O)CC(=O)O)CC(=O)O [EDTA] |  |  | no significant improvement | 
4 | CC[C@H](C)[C@H](N)C1=N[C@H](C(=O)N[C@@H](CC(C)C)C(=O)N[C@H](CCC(=O)O)C(=O)N[C@H](C(=O)N[C@H]2CCCCNC(=O)[C@H](CC(N)=O)NC(=O)[C@@H](CC(=O)O)NC(=O)[C@H](Cc3cnc[nH]3)NC(=O)[C@@H](Cc3ccccc3)NC(=O)[C@H]([C@@H](C)CC)NC(=O)[C@@H](CCCN)NC2=O)[C@@H](C)CC)CS1 [bacitracin] ({Ileψ(thiazoline)Cys}-L[dE]IK[dOrn]I[dF]H[dD]N; lactam 4-C) |  | no significant improvement |  | did not show significant effect
